Reference: PubChem BioAssay AID330 (DTP/NCI, 2004)
“And” between values parts separate entries of the source, which are not always exact repeats. Identical values can stand only once. Toxic doses and inconclusive results are not listed. Rule for the calls: active = survival T/C of 150% or more; inactive = T/C below 125% in these data. Peptide text beside a SMILES is read from it. * marks the point of attachment. Cbz = O=C(OCc1ccccc1)*; Bn = c1ccc(C*)cc1

System: P388 leukemia ip, CD2F1 mice, survival T/C
Assay: NCI In Vivo Anticancer Drug Screen. Data for tumor model P388 Leukemia (intraperitoneal) in CD2F1 (CDF1) mice
Settings: endpoint: median survival time, higher = longer survival
Outline: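 Mice carrying the transplanted tumor received test compound or vehicle. Survival was recorded in each group, and the value is the treated-group measurement divided by that of the vehicle-treated control group.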

[1] = dose: 50.0 mg/kg/injection, schedule: Q01DX005 (ip), vehicle: saline with Tween-80
[2] = dose: 100.0 mg/kg/injection, schedule: Q01DX005 (ip), vehicle: saline with Tween-80
[3] = dose: 12.5 mg/kg/injection, schedule: Q01DX009 (ip), vehicle: saline with Tween-80
[4] = dose: 25.0 mg/kg/injection, schedule: Q01DX009 (ip), vehicle: saline with Tween-80
[5] = dose: 50.0 mg/kg/injection, schedule: Q01DX009 (ip), vehicle: saline with Tween-80
[6] = dose: 25.0 mg/kg/injection, schedule: Q01DX001 (ip), vehicle: Klucel (hydroxypropylcellulose) (HPC)
[7] = dose: 50.0 mg/kg/injection, schedule: Q01DX001 (ip), vehicle: Klucel (hydroxypropylcellulose) (HPC)
[8] = dose: 100.0 mg/kg/injection, schedule: Q01DX001 (ip), vehicle: Klucel (hydroxypropylcellulose) (HPC)
[9] = dose: 200.0 mg/kg/injection, schedule: Q01DX001 (ip), vehicle: Klucel (hydroxypropylcellulose) (HPC)
[10] = dose: 400.0 mg/kg/injection, schedule: Q01DX001 (ip), vehicle: Klucel (hydroxypropylcellulose) (HPC)
[11] = dose: 50.0 mg/kg/injection, schedule: Q01DX005 (ip), vehicle: Klucel (hydroxypropylcellulose) (HPC)
[12] = dose: 100.0 mg/kg/injection, schedule: Q01DX005 (ip), vehicle: Klucel (hydroxypropylcellulose) (HPC)
[13] = dose: 200.0 mg/kg/injection, schedule: Q01DX005 (ip), vehicle: Klucel (hydroxypropylcellulose) (HPC)
[14] = dose: 240.0 mg/kg/injection, schedule: Q01DX005 (ip), vehicle: saline with Tween-80
[15] = dose: 200.0 mg/kg/injection, schedule: Q01DX005 (ip), vehicle: saline with Tween-80
[16] = dose: 100.0 mg/kg/injection, schedule: Q04DX003 (ip), vehicle: saline with Tween-80
[17] = dose: 200.0 mg/kg/injection, schedule: Q04DX003 (ip), vehicle: saline with Tween-80
[18] = dose: 400.0 mg/kg/injection, schedule: Q04DX003 (ip), vehicle: saline with Tween-80
[19] = dose: 60.0 mg/kg/injection, schedule: Q01DX005 (ip), vehicle: saline with Tween-80
[20] = dose: 100.0 mg/kg/injection, schedule: Q01DX009 (ip), vehicle: saline with Tween-80
[21] = dose: 200.0 mg/kg/injection, schedule: Q01DX009 (ip), vehicle: saline with Tween-80

Measured: T/C

O=C1CC2c3ccccc3CCN2C2=C1CCC2 (configuration not stated)
inactive: [1] 96 % of control | [2] 104 % of control

Cc1cc(N(C)C)nc2cc(N)ccc12
inactive: [3] 103 % of control | [4] 111 % of control | [5] 101 % of control and 89 % of control

NC(N)=N/N=C1/c2ccccc2/C(=N/N=C(N)N)C1[N+](=O)[O-]
inactive: [6] 112 % of control | [7] 114 % of control | [8] 114 % of control | [9] 113 % of control | [10] 111 % of control

CC(=O)C1CCC2C3CC4OCC5(CCC(O)CC45Br)C3CCC12C (configuration not stated)
inactive: [11] 104 % of control | [12] 98 % of control | [13] 101 % of control

O=C(CC(=O)N1N=C(N(c2ccccc2)c2ccccc2)CC1c1ccccc1)Nc1ccccc1Cl (configuration not stated)
inactive: [1] 99 % of control | [2] 99 % of control | [14] 90 % of control

ClCC1=NC2CCCCC2N1 (configuration not stated)
inactive: [1] 102 % of control | [2] 98 % of control

C=C(CSCCCCCCCCCCCC)C(=O)O
inactive: [1] 116 % of control | [2] 114 % of control | [15] 115 % of control

O=c1nc2n(c3nccnc13)CCS2
inactive: dose: 12.5 mg/kg/injection, schedule: Q01DX009 (ip), vehicle: saline 111 % of control | dose: 25.0 mg/kg/injection, schedule: Q01DX009 (ip), vehicle: saline 104 % of control | dose: 50.0 mg/kg/injection, schedule: Q01DX009 (ip), vehicle: saline 100 % of control

CC(=O)Nc1ccc(S(=O)(=O)Oc2noc3ccc(Br)cc23)cc1
inactive: [11] 98 % of control | [12] 97 % of control | [13] 90 % of control

Nc1cc2ccc3ncccc3c2c2cccnc12
inactive: [16] 103 % of control | [17] 97 % of control | [18] 97 % of control

COc1cc(C(=O)NOCc2cc3c(cc2Cl)OCO3)cc(OC)c1OC
inactive: dose: 100.0 mg/kg/injection, schedule: Q04DX003 (ip), vehicle: saline sonified 90 % of control | dose: 400.0 mg/kg/injection, schedule: Q04DX003 (ip), vehicle: saline sonified 90 % of control

COc1nc(NC2OC(COC(C)=O)C(OC(C)=O)C(OC(C)=O)C2OC(C)=O)c2c(O)coc2n1 (configuration not stated)
inactive: dose: 100.0 mg/kg/injection, schedule: Q01DX001 (ip), vehicle: saline with Tween-80 115 % of control | dose: 200.0 mg/kg/injection, schedule: Q01DX001 (ip), vehicle: saline with Tween-80 106 % of control | dose: 400.0 mg/kg/injection, schedule: Q01DX001 (ip), vehicle: saline with Tween-80 92 % of control

Cn1cnc2cc(NCCCc3ccccc3)c([N+](=O)[O-])cc2c1=O
inactive: [16] 103 % of control | [17] 101 % of control | [18] 105 % of control

OC1COc2ccccc2OCCOCCOc2ccccc2OC1
inactive: dose: 15.0 mg/kg/injection, schedule: Q01DX005 (ip), vehicle: saline with Tween-80 100 % of control | dose: 30.0 mg/kg/injection, schedule: Q01DX005 (ip), vehicle: saline with Tween-80 94 % of control | [19] 95 % of control and 96 % of control

Nc1cc(=O)[nH]c(=O)[nH]1
inactive: [4] 99 % of control | [5] 100 % of control | [20] 100 % of control | [21] 98 % of control

COC(=O)C1C2COc3ccccc3C2=NC1c1ccc([N+](=O)[O-])cc1 (configuration not stated)
inactive: [6] 91 % of control | [7] 96 % of control | [8] 95 % of control

COC1=CC[C@H]2[C@H]3Cc4ccc(OC)c5c4[C@@]2(CCN3CC2CC2)C1O5 (some centres not stated)
inactive: dose: 100.0 mg/kg/injection, schedule: Q04DX002 (ip), vehicle: Klucel (hydroxypropylcellulose) (HPC) 97 % of control | dose: 200.0 mg/kg/injection, schedule: Q04DX002 (ip), vehicle: Klucel (hydroxypropylcellulose) (HPC) 102 % of control

COc1ccc(S(=O)(=O)N/N=C/c2ncc[nH]2)cc1
inactive: dose: 25.0 mg/kg/injection, schedule: Q01DX005 (ip), vehicle: saline with Tween-80 99 % of control | [1] 99 % of control | [2] 100 % of control

O=C1OC(Cl)C(c2ccccc2)=C1c1ccccc1 (configuration not stated)
inactive: dose: 100.0 mg/kg/injection, schedule: Q04DX002 (ip), vehicle: saline 96 % of control | dose: 200.0 mg/kg/injection, schedule: Q04DX002 (ip), vehicle: saline 98 % of control | dose: 400.0 mg/kg/injection, schedule: Q04DX002 (ip), vehicle: saline 105 % of control

O=C1OC2(c3ccc(O)cc3Oc3cc(O)ccc32)c2cccc3cccc1c23
inactive: [11] 105 % of control | [12] 99 % of control | [13] 103 % of control

COc1ccc(Cn2nnc(C(N)=O)c2Cl)cc1
inactive: [8] 99 % of control | [9] 99 % of control | [10] 89 % of control

CC1=Nc2cc(Cl)c(Cl)cc2N(C)/C1=C/C1=C(Cl)C(=O)c2ccccc2C1=O
inactive: dose: 6.25 mg/kg/injection, schedule: Q01DX009 (ip), vehicle: saline with Tween-80 114 % of control | [3] 95 % of control | [4] 107 % of control | [5] 105 % of control | [20] 104 % of control

CCN(CC)Cc1cc(N)cc(N=Nc2ccc3c(c2)c2ccccc2n3CC)c1O
inactive: [5] 97 % of control | [20] 108 % of control | [21] 105 % of control

C[C@]12Cc3cnc(N)nc3C[C@@H]1CC[C@@H]1[C@@H]2CC[C@@]2(C)[C@H]1CC[C@]2(C)O
inactive: [1] 99 % of control | [2] 89 % of control | [15] 89 % of control

COC(=O)C(CSCc1ccccc1)NC(=O)C(CC(N)=O)NC(=O)OCc1ccccc1 (stereo not drawn) (Cbz-Asn-Cys(Bn)-OMe; configuration not given here)
inactive: dose: 12.5 mg/kg/injection, schedule: Q01DX009 (ip), vehicle: distilled water + Tween-80 88 % of control | dose: 25.0 mg/kg/injection, schedule: Q01DX009 (ip), vehicle: distilled water + Tween-80 88 % of control | dose: 50.0 mg/kg/injection, schedule: Q01DX009 (ip), vehicle: distilled water + Tween-80 91 % of control | dose: 100.0 mg/kg/injection, schedule: Q01DX009 (ip), vehicle: distilled water + Tween-80 92 % of control | dose: 200.0 mg/kg/injection, schedule: Q01DX009 (ip), vehicle: distilled water + Tween-80 103 % of control

Nc1c(C(=O)Nc2ccc3c(c2)C(=O)c2ccccc2C3=O)ccc2c1C(=O)c1ccccc1C2=O
inactive: [11] 107 % of control | [12] 90 % of control | [13] 100 % of control

O=c1c(Br)cn(Cc2ccccc2)cc1Br
inactive: dose: 50.0 mg/kg/injection, schedule: Q01DX005 (ip), vehicle: saline 92 % of control | dose: 100.0 mg/kg/injection, schedule: Q01DX005 (ip), vehicle: saline 95 % of control | dose: 200.0 mg/kg/injection, schedule: Q01DX005 (ip), vehicle: saline 90 % of control

CCOC(=O)N1c2ccccc2SC1C#N (configuration not stated)
inactive: [19] 97 % of control | dose: 120.0 mg/kg/injection, schedule: Q01DX005 (ip), vehicle: saline with Tween-80 92 % of control | [14] 105 % of control
